Molecules are shown by their SMILES.

T1 sequence (Q13304 whole entry): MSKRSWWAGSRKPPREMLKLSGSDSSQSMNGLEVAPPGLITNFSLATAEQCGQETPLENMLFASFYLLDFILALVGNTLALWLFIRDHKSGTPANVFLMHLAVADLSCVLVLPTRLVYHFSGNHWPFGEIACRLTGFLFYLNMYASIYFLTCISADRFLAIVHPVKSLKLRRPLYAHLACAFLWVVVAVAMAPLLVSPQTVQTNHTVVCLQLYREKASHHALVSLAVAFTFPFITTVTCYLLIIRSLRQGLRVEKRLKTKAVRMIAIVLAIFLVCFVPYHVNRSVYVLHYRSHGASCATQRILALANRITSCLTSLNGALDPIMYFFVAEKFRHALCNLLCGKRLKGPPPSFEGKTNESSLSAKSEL

This experiment addresses T1, human GPR17 receptor (Homo sapiens, UniProt Q13304).
T1 construct: host or cells: HEK-293
Description: Calcium mobilization functional assay (Fluo-8, FLIPR TETRA) in HEK-293 hGPR17 (Gα-q assay). It counts as cell-based. The settings on record: antagonism of MDL29,951 (~EC80) induced Ca2+ signal; cell line (HEK-293 hGPR17 or HEK-293 Suchi5 hGPR17) not given. Summed up: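 Fluo-8-loaded HEK-293 hGPR17 cells (60 min dye loading, room temperature) were preincubated with compound for twenty minutes, then challenged with agonist MDL29,951 at ~EC80, 500 nM. Intracellular calcium release via Gα-q was recorded as FLIPR fluorescence for a further 2 minutes; compounds tested in duplicate.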
For the molecule `N#Cc1ccc(NS(=O)(=O)c2c[nH]c(-c3cccc(CO)c3F)c2)c(F)c1` [Cpd 107, N-(4-cyano-2-fluoro-phenyl)-5-[2-fluoro-3-(hydroxymethyl)phenyl]-1H-pyrrole-3-sulfonamide], the IC50 is 0.5 to 5 µM.

With `N#Cc1ccc(NS(=O)(=O)c2c[nH]c(-c3cc(CO)ccc3F)c2)c(F)c1` [Cpd 108, N-(4-cyano-2-fluoro-phenyl)-5-[2-fluoro-5-(hydroxymethyl)phenyl]-1H-pyrrole-3-sulfonamide], the half-maximal inhibitory concentration (IC50) is 0.5 to 5 µM.

With `O=S(=O)(Nc1cc(F)c(F)cc1F)c1c[nH]c(-c2ccc(F)cc2)c1` [Cpd 109, 5-(4-fluorophenyl)-N-(2,4,5-trifluorophenyl)-1H-pyrrole-3-sulfonamide], the IC50 lay within 5 to 50 µM.

With `O=S(=O)(Nc1cc(F)c(F)cc1F)c1c[nH]c(-c2cccc(F)c2)c1` [Cpd 110, 5-(3-fluorophenyl)-N-(2,4,5-trifluorophenyl)-1H-pyrrole-3-sulfonamide], the 50% inhibitory concentration (IC50) was 0.5 to 5 µM.

On to `Cc1ccccc1-c1cc(S(=O)(=O)Nc2cc(F)c(F)cc2F)c[nH]1` [Cpd 111, 5-(o-tolyl)-N-(2,4,5-trifluorophenyl)-1H-pyrrole-3-sulfonamide], for which the IC50 is 0.5 to 5 µM.

`O=S(=O)(Nc1ccc2ncccc2c1)c1c[nH]c(-c2ccccc2)c1` [Cpd 112, 5-phenyl-N-(6-quinolyl)-1H-pyrrole-3-sulfonamide]: the concentration for half-maximal inhibition (IC50) is 0.5 to 5 µM.

Take `O=S(=O)(Nc1cc(F)c(C(F)(F)F)cc1F)c1c[nH]c(-c2ccc(F)cc2)c1` [Cpd 113, N-[2,5-difluoro-4-(trifluoromethyl)phenyl]-5-(4-fluorophenyl)-1H-pyrrole-3-sulfonamide]: the half-inhibitory concentration (IC50) lay in the range of 0.5 to 5 µM.

For `O=S(=O)(Nc1cc(F)c(C(F)(F)F)cc1F)c1c[nH]c(-c2cccc(F)c2)c1` [Cpd 114, N-[2,5-difluoro-4-(trifluoromethyl)phenyl]-5-(3-fluorophenyl)-1H-pyrrole-3-sulfonamide], the half-maximal inhibitory concentration (IC50) was 0.5 to 5 µM.

For `O=S(=O)(Nc1ccc(OCCF)cc1F)c1c[nH]c(-c2ccccc2F)c1` [Cpd 115, N-[2-fluoro-4-(2-fluoroethoxy)phenyl]-5-(2-fluorophenyl)-1H-pyrrole-3-sulfonamide], the 50% inhibitory concentration (IC50) fell in the range of 5 to 50 µM.

In the case of `COc1nc(OC(F)F)c(F)cc1NS(=O)(=O)c1c[nH]c(-c2ccccc2F)c1` [Cpd 116, N-[6-(difluoromethoxy)-5-fluoro-2-methoxy-3-pyridyl]-5-(2-fluorophenyl)-1H-pyrrole-3-sulfonamide], the IC50 is less than 0.5 µM.

Consider `COc1ccc(F)c(-c2cc(S(=O)(=O)Nc3cc(F)c(C(F)(F)F)cc3F)c[nH]2)c1` [Cpd 117, N-[2,5-difluoro-4-(trifluoromethyl)phenyl]-5-(2-fluoro-5-methoxy-phenyl)-1H-pyrrole-3-sulfonamide], for which the IC50 was in the range of 0.5 to 5 µM.

As for `Cc1ccccc1-c1cc(S(=O)(=O)Nc2cc(F)c(C(F)(F)F)cc2F)c[nH]1` [Cpd 118, N-[2,5-difluoro-4-(trifluoromethyl)phenyl]-5-(o-tolyl)-1H-pyrrole-3-sulfonamide], the half-inhibitory concentration (IC50) was in the range of 0.5 to 5 µM.

`O=S(=O)(Nc1cc(F)c(C(F)(F)F)cc1F)c1c[nH]c(-c2c(F)cccc2F)c1` [Cpd 119, 5-(2,6-difluorophenyl)-N-[2,5-difluoro-4-(trifluoromethyl)phenyl]-1H-pyrrole-3-sulfonamide]: the IC50 is less than 0.5 µM.

Regarding `O=S(=O)(Nc1ccc(F)cc1F)c1c[nH]c(-c2cccc(F)c2)c1` [Cpd 120, N-(2,4-difluorophenyl)-5-(3-fluorophenyl)-1H-pyrrole-3-sulfonamide], the IC50 fell in the range of 5 to 50 µM.

Take `O=S(=O)(Nc1ccc(F)cc1F)c1c[nH]c(-c2ccccn2)c1` [Cpd 122, N-(2,4-difluorophenyl)-5-(2-pyridyl)-1H-pyrrole-3-sulfonamide]: the IC50 lay within 5 to 50 µM.

`O=S(=O)(Nc1ccc(C(F)(F)F)cc1F)c1c[nH]c(-c2ccccn2)c1` [Cpd 123, N-[2-fluoro-4-(trifluoromethyl)phenyl]-5-(2-pyridyl)-1H-pyrrole-3-sulfonamide]: the half-maximal inhibitory concentration (IC50) lay in the range of 0.5 to 5 µM.

The term IC50 denotes the concentration that gives 50% inhibition.

These data come from patent US20240299385A1 (ReWind Therapeutics NV, priority 2021, published 2024).
